IC50 and remaining activity data for 5 molecules are collected here from patent US8703961B2, “Thiazole derivatives for the treatment of diseases such as cancer” (Merck Patent GmbH, priority 2009, dated 2014).

Holding throughout (assay): filter binding kinase assay
Common to all, as to format: biochemical

Assay [1] concerns the target T1, FGFR1 (Homo sapiens, UniProt P11362).
T1 construct: purchased
The following applies: derived from % inhibition at 1 μM. In outline: (§1)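 Each reaction ran at ambient temperature following a five-minute compound preincubation, was started with ATP (5, 20 or 50 […] stock, per enzyme) and stopped with acid; substrate phosphorylation was read by scintillation counting of P81 filters.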

Assay [2] has as its target T2, INSRR (Homo sapiens, UniProt P14616).
T2 construct: purchased
The settings on record: derived from % inhibition at 1 μM. Summed up:
as §1

In assay [3] the target is T3, PDPK1 (PDK1) (Homo sapiens, UniProt O15530).
T3 construct: purchased
T3 sequence (O15530 1-556): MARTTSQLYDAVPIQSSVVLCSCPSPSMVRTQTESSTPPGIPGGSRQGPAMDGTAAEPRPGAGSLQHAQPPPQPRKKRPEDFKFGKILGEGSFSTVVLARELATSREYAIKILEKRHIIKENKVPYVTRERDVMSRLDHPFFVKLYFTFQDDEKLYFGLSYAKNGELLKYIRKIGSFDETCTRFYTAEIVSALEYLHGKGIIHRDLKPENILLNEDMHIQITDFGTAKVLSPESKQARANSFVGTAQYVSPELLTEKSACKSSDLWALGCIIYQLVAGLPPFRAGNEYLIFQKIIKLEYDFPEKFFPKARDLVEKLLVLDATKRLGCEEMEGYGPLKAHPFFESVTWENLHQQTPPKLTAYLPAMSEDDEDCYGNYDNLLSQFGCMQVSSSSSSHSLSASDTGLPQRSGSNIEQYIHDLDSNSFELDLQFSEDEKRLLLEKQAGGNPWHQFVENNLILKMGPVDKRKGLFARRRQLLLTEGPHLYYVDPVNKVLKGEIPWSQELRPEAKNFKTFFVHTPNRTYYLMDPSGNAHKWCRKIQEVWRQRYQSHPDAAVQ
The settings on record: for IC50: derived from % inhibition at 1 μM, first PDPK1 line. In outline:
as §1

Assay [4] concerns the target T4, PRKAA1 (Homo sapiens, UniProt Q13131).
T4 construct: purchased
The settings on record: derived from % inhibition at 1 μM. In outline:
as §1

In assay [5] the target is T5, MET (Homo sapiens, UniProt P08581).
T5 construct: 6His (N); purchased Upstate 14-526; host or cells: insect cells (Sf21; S. frugiperda), baculovirus
The following applies: derived from % inhibition at 1 μM. Summed up: as §1

For assay [6], the target named is T6, NEK6 (Homo sapiens, UniProt Q9HC98).
T6 construct: purchased
The following applies: derived from % inhibition at 1 μM. In outline:
as §1

For assay [7], the target named is T7, RPS6KA1 (Homo sapiens, UniProt Q15418).
T7 construct: purchased
The following applies: derived from % inhibition at 1 μM. In outline:
as §1

Assay [8] has as its target T8, GSK3B (GSK3b) (Homo sapiens, UniProt P49841).
T8 construct: purchased
The settings on record: for IC50: derived from % inhibition at 1 μM. Summed up:
as §1

In assay [9] the target is T9, YES1 (Homo sapiens, UniProt P07947).
T9 construct: purchased
The following applies: derived from % inhibition at 1 μM. Summed up:
as §1

Assay [10] concerns the target T10, IRAK4 (Homo sapiens, UniProt Q9NWZ3).
T10 construct: purchased
T10 sequence (Q9NWZ3 1-460): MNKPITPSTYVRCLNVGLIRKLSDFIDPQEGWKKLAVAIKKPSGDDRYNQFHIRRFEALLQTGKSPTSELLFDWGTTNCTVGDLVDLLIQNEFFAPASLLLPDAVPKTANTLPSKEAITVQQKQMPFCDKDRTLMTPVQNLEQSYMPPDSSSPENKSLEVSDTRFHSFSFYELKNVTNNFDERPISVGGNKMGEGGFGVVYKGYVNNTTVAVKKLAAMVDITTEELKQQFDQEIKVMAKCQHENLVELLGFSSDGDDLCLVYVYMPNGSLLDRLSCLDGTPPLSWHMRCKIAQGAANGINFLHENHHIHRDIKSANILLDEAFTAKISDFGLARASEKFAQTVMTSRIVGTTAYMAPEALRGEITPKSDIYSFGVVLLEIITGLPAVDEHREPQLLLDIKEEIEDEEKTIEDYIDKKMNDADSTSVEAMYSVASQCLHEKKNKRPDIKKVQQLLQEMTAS
The following applies: derived from % inhibition at 1 μM. In outline: as §1

Assay [11] has as its target T11, MAP3K11 (MLK3) (Homo sapiens, UniProt Q16584).
T11 construct: purchased
The settings on record: for IC50: derived from % inhibition at 1 μM. In outline: as §1

The target of assay [12] is T12, KDR (VEGFR) (Homo sapiens, UniProt P35968).
T12 construct: purchased
The settings on record: for IC50: derived from % inhibition at 1 μM. In outline: as §1

The target in assay [13] is T13, PIM1 (Homo sapiens, UniProt P11309).
T13 construct: purchased
The following applies: derived from % inhibition at 1 μM. Summed up:
as §1

Assay [14] has as its target T14, PRKACA (Homo sapiens, UniProt P17612).
T14 construct: purchased
The settings on record: derived from % inhibition at 1 μM. In outline:
as §1

T12 sequence (P35968 20-1356, species assumed): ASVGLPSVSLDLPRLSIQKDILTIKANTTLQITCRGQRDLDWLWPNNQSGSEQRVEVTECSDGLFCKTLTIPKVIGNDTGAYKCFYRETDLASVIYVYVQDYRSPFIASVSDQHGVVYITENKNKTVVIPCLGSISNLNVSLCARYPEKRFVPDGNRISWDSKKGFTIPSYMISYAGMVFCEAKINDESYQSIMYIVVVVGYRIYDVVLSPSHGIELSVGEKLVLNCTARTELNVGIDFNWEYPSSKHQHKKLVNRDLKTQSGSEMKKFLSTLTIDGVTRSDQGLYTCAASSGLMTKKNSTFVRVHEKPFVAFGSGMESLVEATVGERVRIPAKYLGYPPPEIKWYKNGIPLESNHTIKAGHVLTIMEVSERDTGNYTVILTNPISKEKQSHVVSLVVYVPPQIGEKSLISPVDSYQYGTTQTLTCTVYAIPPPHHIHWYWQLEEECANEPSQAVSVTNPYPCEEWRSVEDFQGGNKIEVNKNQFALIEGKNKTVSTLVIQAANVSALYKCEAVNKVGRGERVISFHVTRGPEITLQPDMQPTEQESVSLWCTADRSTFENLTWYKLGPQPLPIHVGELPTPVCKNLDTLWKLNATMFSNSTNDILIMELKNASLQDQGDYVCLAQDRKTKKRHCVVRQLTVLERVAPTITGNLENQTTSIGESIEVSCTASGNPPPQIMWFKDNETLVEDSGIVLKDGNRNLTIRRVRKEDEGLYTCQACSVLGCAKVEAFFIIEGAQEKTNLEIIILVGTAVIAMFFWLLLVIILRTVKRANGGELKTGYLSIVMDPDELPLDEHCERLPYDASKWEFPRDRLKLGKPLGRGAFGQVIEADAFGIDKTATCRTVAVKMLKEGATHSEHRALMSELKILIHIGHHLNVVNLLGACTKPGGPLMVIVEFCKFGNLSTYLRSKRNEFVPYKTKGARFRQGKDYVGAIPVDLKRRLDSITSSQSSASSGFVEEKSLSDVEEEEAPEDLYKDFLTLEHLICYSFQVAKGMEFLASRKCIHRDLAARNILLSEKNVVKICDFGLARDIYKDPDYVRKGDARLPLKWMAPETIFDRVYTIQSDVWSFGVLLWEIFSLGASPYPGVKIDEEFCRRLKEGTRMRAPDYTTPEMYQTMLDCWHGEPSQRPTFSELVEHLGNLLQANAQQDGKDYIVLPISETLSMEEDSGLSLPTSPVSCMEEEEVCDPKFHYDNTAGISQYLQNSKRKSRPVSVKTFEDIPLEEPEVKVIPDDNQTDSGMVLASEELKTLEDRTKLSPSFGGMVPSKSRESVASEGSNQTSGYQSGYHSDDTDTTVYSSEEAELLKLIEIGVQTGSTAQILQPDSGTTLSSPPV
T9 sequence (P07947 whole entry, species assumed): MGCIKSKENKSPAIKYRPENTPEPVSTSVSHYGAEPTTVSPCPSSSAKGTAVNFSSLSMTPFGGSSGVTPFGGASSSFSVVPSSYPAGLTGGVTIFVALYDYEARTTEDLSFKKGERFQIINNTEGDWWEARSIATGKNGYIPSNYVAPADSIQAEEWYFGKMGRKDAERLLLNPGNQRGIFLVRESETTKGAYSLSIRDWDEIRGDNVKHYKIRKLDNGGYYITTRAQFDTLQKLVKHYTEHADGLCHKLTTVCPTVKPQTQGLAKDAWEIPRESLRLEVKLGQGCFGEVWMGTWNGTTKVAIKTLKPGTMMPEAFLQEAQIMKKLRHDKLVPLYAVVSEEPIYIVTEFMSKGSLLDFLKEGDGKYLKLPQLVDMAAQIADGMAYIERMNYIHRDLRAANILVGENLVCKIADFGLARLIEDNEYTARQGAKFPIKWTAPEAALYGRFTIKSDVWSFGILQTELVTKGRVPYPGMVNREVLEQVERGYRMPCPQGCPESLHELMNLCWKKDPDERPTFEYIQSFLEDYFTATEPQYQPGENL
T1 sequence (P11362 22-822, species assumed): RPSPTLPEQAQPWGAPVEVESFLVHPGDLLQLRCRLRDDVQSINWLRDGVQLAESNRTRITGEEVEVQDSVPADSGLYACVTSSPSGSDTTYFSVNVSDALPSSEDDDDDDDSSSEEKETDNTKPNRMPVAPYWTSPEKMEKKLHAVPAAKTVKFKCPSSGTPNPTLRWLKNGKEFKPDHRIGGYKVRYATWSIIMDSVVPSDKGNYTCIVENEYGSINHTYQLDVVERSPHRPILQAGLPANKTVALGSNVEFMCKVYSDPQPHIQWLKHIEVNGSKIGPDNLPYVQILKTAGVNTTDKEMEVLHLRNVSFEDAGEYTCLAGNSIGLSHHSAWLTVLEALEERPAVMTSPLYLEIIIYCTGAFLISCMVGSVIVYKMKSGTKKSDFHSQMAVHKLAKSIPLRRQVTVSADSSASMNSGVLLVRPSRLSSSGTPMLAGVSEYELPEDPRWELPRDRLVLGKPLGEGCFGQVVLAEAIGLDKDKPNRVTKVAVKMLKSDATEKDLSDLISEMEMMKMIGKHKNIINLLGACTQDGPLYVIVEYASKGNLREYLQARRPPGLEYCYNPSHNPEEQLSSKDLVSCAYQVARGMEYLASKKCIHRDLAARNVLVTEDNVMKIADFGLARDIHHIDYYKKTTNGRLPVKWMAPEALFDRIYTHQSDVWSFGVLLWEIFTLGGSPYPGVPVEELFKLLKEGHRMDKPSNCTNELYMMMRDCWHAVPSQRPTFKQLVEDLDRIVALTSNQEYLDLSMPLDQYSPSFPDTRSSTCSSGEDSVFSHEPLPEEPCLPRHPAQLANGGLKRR
T11 sequence (Q16584 whole entry, species assumed): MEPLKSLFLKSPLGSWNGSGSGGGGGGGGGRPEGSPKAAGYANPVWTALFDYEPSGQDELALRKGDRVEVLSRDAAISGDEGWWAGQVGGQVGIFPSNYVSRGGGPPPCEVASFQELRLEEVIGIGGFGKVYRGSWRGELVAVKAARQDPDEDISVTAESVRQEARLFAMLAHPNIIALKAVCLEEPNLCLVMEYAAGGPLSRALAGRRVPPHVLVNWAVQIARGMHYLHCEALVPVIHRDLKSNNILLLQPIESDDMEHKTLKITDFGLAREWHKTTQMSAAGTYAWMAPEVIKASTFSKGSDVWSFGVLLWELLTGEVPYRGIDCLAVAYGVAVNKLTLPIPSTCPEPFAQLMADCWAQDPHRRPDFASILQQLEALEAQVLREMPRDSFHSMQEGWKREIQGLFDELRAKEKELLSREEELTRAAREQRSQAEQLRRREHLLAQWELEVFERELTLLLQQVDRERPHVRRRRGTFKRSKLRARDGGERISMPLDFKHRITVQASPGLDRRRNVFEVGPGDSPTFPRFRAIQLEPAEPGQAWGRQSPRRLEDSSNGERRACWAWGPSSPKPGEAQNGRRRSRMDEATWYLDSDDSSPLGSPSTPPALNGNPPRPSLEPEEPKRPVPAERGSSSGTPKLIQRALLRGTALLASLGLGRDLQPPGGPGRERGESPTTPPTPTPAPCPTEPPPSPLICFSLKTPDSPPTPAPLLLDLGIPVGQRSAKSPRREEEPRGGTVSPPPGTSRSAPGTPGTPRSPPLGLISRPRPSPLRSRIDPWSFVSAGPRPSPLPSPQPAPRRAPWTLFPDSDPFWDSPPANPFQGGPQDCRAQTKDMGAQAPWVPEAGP
T4 sequence (Q13131 whole entry, species assumed): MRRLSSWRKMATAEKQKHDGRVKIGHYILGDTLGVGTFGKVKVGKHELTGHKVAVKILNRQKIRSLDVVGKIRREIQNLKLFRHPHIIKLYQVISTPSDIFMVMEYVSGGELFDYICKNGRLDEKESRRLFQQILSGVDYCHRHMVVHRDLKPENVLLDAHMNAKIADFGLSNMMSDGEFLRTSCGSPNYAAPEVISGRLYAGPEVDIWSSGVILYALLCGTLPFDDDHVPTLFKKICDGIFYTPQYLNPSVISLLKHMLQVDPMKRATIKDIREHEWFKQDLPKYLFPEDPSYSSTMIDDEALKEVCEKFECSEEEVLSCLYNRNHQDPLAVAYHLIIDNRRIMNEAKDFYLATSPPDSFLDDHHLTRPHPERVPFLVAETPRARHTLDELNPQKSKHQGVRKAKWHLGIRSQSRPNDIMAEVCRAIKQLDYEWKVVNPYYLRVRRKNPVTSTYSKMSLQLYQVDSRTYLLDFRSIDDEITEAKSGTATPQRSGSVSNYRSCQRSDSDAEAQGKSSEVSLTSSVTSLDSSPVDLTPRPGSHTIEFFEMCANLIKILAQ
T4 sequence (Q9Y478 whole entry partner, species assumed): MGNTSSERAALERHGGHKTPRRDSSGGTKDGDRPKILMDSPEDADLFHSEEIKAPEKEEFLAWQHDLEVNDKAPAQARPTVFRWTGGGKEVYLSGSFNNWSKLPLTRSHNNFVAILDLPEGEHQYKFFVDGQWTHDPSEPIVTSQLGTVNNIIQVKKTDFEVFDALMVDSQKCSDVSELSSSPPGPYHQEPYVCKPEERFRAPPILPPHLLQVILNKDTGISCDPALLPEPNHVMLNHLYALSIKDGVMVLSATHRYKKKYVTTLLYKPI
T4 sequence (P54619 whole entry partner, species assumed): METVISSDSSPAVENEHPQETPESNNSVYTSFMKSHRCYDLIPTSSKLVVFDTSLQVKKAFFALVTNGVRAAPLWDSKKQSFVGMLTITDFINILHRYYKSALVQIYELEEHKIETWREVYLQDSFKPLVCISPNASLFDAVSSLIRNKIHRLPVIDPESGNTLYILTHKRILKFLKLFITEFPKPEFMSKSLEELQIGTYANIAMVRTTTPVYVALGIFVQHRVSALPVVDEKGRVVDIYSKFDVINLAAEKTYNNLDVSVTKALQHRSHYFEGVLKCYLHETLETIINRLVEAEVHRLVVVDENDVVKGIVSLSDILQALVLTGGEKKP
T13 sequence (P11309 whole entry, species assumed): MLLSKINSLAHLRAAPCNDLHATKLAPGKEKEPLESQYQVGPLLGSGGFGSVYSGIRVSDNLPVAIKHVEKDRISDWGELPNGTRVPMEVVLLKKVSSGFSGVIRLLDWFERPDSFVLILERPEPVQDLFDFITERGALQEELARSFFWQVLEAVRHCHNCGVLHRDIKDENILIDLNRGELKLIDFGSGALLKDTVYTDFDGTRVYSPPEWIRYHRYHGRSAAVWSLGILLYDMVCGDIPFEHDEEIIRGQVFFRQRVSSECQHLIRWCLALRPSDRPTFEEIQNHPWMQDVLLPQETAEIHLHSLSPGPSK

One may read the IC50 as the point on the concentration scale where inhibition reaches its midpoint. In the case of `c1ccc(Cc2c[nH]c3ncsc23)cc1` [Compound A7, 6-benzyl-4H-pyrrolo[2,3-d]thiazole], the half-inhibitory concentration (IC50) in [1] was 1 to 10 µM; in assay [2] it was over 1 µM; in assay [3], over 1 µM; in assay [4], 10 to 100 µM; in assay [5], 1 to 10 µM; in [6], 10 to 100 µM. In addition, the IC50 in [7] was 10 to 100 µM; in assay [8] it was 1 to 10 µM; in assay [9], over 1 µM; in assay [10], over 1 µM; in assay [11] it was 10 to 100 µM; in assay [12] it was 1 to 10 µM. For the same molecule, the results for the IC50 in assay [13] and in [14] were 10 to 100 µM and over 1 µM, respectively.

In the case of `Nc1ncsc1C#Cc1cnc2[nH]ccc2c1` [Compound A22, 5-(1H-pyrrolo[2,3-b]pyridin-5-ylethynyl)thiazol-4-ylamine], the IC50 in [1] is 1 to 10 µM; in assay [2], 1 to 10 µM; in [3] it was 1 to 10 µM; in [4] it was 10 to 100 µM; in [5] it was over 1 µM; in [6], over 1 µM. Also, the IC50 in assay [7] is over 1 µM; in assay [8], 0.01 to 1 µM; in [9], 1 to 10 µM; in assay [10], over 1 µM; in [11] it was 0.01 to 1 µM; in assay [12], 0.01 to 1 µM. The IC50 in [13] and in [14] was 1 to 10 µM in each case. The remaining activity at 1 µM in [3] (read-out: residual kinase activity PDK1) was found to be 53%; in assay [8] (read-out: residual kinase activity GSK3b), 9%; in assay [11] (read-out: residual kinase activity MLK3), 23%; in assay [12] (read-out: residual kinase activity VEGFR) it was 11%.

Take `CC(C)(C)OC(=O)Nc1nc(-c2ccncc2)sc1C#CCN1CCOCC1` [Compound A25, tert-butyl[5-(3-morpholin-4-ylprop-1-ynyl)-2-pyridin-4-ylthiazol-4-yl]-carbamate]: the IC50 in assay [1] was over 1 µM; in assay [2], over 1 µM; in [3] it was over 1 µM; in [4] it was 10 to 100 µM; in assay [5], over 1 µM; in assay [6], 1 to 10 µM. Further, the IC50 in assay [7] was 10 to 100 µM; in assay [8] it was over 1 µM; in [9], over 1 µM; in assay [10] it was 10 to 100 µM; in assay [11], over 1 µM; in assay [12], over 1 µM. Moreover, the IC50 in [13] and in [14] was over 1 µM in each case.

Take `CC(C)(C)OC(=O)Nc1ncsc1C#CCN1C(=O)c2ccccc2C1=O` [Compound A26, tert-butyl{5-[3-(1,3-dioxo-1,3-dihydroisoindol-2-yl)prop-1-ynyl]-thiazol-4-yl}carbamate]: the half-maximal inhibitory concentration (IC50) in assay [1] was 1 to 10 µM; in assay [2], 1 to 10 µM; in assay [3], 1 to 10 µM; in [4], 10 to 100 µM; in assay [5] it was over 1 µM; in [6], 10 to 100 µM. Besides, the IC50 is over 1 µM in [7]; 1 to 10 µM in [8]; over 1 µM in [9]; 10 to 100 µM in [10]; 1 to 10 µM in [11]; over 1 µM in assay [12]. In addition, the half-maximal inhibitory concentration (IC50) in assay [13] and in assay [14] was 10 to 100 µM in each case.

Regarding `Nc1ncsc1C#Cc1cccc(O)c1` [Compound A27, 3-(4-aminothiazol-5-ylethynyl)phenol], the IC50 in assay [1] is over 1 µM; in assay [2] it was over 1 µM; in [3], over 1 µM; in [4], 1 to 10 µM; in assay [5], 10 to 100 µM; in assay [6] it was 10 to 100 µM. Moreover, the IC50 in assay [7] was over 1 µM; in [8], 1 to 10 µM; in assay [9] it was over 1 µM; in assay [10], 10 to 100 µM; in assay [11] it was 10 to 100 µM; in [12], 1 to 10 µM. Further, the IC50 in assay [13] and in assay [14] was 1 to 10 µM in each case.
